Measured values as given in patent US6660742B2, “Compositions and methods of the use thereof achiral analogues of CC-1065 and the duocarmycins” (priority 2000, dated 2003).
Where two headings read alike, the source gives them in different places.

Tests used:
NCI-H226 = assay: NCI screen, NCI-H226 (Non-Small Cell Lung Cancer); assay type: cell-based, human
Procedure: (§1) The compounds of this invention were also tested against the panel of 60 human cancer cell lines at the National Cancer Institute, Bethesda, Md. […] The cytrotoxicity studies were conducted using a 48 hour exposure, and measuring the optical density of sulforhodamide B-derived color.

SF-539 [1] = assay: NCI screen, SF-539 (CNS Cancer)
Procedure: as §1

OVCAR-3 = assay: NCI screen, OVCAR-3 (Ovarian Cancer)
Procedure: as §1

COLO 205 = assay: NCI screen, COLO 205 (Colon Cancer); assay type: cell-based, human
Procedure: as §1

NCI-H460 = assay: NCI screen, NCI-H460 (Non-Small Cell Lung Cancer); assay type: cell-based, human
Procedure: as §1

SK-MEL-5 = assay: NCI screen, SK-MEL-5 (Melanoma)
Procedure: as §1

UACC-257 = assay: NCI screen, UACC-257 (Melanoma)
Procedure: as §1

A498 = assay: NCI screen, A498 (Renal Cancer); assay type: cell-based, human
Procedure: as §1

HL-60(TB) = assay type: cell-based
M14 = assay: NCI screen, M14 (Melanoma)
Procedure: as §1

L1210 leukemia cells = assay: MTT cytotoxicity on L1210 cells; assay type: cell-based, murine; conditions: 72 hr incubation
Procedure: The P815 and L1210 cell lines were obtained from American Type Tissue Culture Collection (ATCC). The cell lines were grown in Delbecco's Modified Eagle Medium (DMEM, Atlanta Biologicals) supplemented with 10% fetal bovine serum, Hepes Buffer (2 mM, Mediatech Cellgro, 25-060-Cl), L-Glutamine (2 mM, Mediatech Cellgro), and penicillin/streptomycin (50,000 units penicillin, 50,000 […], Atlanta Biologicals). Cells were maintained at 37° C. in a 5% humidified CO2 atmosphere. Cultured cells were counted using a hemocytometer and resuspended in fresh DMEM at a concentration of 8×10^5 cells/mL. This cell suspension (100 μL) was added to 96 well flat -bottom cell culture plates. At this concentration, 80,000 cells were seeded in each well. Drug solutions (dissolved in DMSO and diluted in DMEM) were added to each well (5 μL/well) resulting in final concentrations ranging from 1×10^−4 to 1×10^−12 M. Quadruplicate wells were prepared for each drug concentration. The plates were incubated for 72 hr at 37° C. in a 5% CO2 atmosphere. MTT (3-(4,5-dimethylthiazol-2-yl)-2,5-diphenyl tetrazolium bromide) was dissolved in PBS (5 mg/ml). After the indicated cell incubation period, 10 μL of this stock MTT solution was added to each well and the plates were further incubated for 4 h at 37° C. in a 5% CO2 atmosphere. […] The contents of the well were mixed thoroughly by pipetting the cell suspension up and down and the plates were allowed to sit at room temperature for 15 min in order to allow for full development of the purple color. The plates were read on a Dynatech Plate Reader, utilizing Dynex Revelation 3.2 software, with a test wavelenth of 570 nm and a reference wavelength of 630 nm.

SF-539 [2] = tested on: SF-539
Procedure: as §1

[3] = tested on: MCF-7 (human breast cancer cells); assay: SRB cytotoxicity on MCF-7 cells; assay type: cell-based
Procedure: (§2) Cells were seeded in 96-well microtiter plates at densities of 1000 cells/well. The optimal seeding density was determined to ensure exponential growth in control wells throughout the experimental period and to obtain a linear relationship between absorbance at 492 nm and cell number when analyzed by the sulforhodamine B (SRB) assay (43). 24 hours after seeding the cells were incubated for 1 hour or continuously for 3 days with the drugs (concentration range 0.01 to 500 μM). The cells were washed once and then incubated in drug free medium for 6 days. At the end of the incubation cell growth was determined by the SRB assay, which quantifies viable cells by measuring their total cellular protein content. […] Similar studies were conducted against the growth of PC3 (human prostate cancer cells) and MCF-7 (human breast cancer cells).

[4] = tested on: human colon adenocarcinoma cell line, LS 174T; assay: SRB cytotoxicity on LS174T cells; assay type: cell-based
Procedure: as §2

[5] = Log10 Concentration −4.3, 48 hour exposure
[6] = Log10 Concentration −5.3, 48 hour exposure
[7] = Log10 Concentration −6.3, 48 hour exposure
[8] = Log10 Concentration −7.3, 48 hour exposure
[9] = Log10 Concentration −8.3, 48 hour exposure

Procedure for BT-549: The compounds of this invention were also tested against the panel of 60 human cancer cell lines at the National Cancer Institute, Bethesda, Md. (44). The cytrotoxicity studies were conducted using a 48 hour exposure, and measuring the optical density of sulforhodamide B-derived color.
Procedure for MALME-3M: as §1
Procedure for MOLT-4: as §1
Procedure for OVCAR-5: as §1
Procedure for RXF 393: as §1
Procedure for SK-MEL-28: as §1

COC(=O)c1[nH]c2c(O)cc(NC(=O)c3cc4cc(OC)c(OC)c(OC)c4[nH]3)c(CCCl)c2c1C(=O)OC [Compound 22, Dimethyl 4-(2-chloroethyl)-7-hydroxy-5-(5,6,7-trimethoxyindole-2-carboxamido)indole-2,3-dicarboxylate]
TGI (NCI-H226; 48 hour exposure): 2.21E−07 Molar | Percent Growth (NCI-H226; [5]): −76% | Percent Growth (NCI-H226; [6]): −55% | Percent Growth (NCI-H226; [7]): −38% | Percent Growth (NCI-H226; [8]): 69% | Percent Growth (NCI-H226; [9]): 104% | TGI (SF-539 [1]; 48 hour exposure): 2.07E−07 Molar | Percent Growth (SF-539 [1]; [5]): −90% | Percent Growth (SF-539 [1]; [6]): −84% | Percent Growth (SF-539 [1]; [7]): −47% | Percent Growth (SF-539 [1]; [8]): 75% | Percent Growth (SF-539 [1]; [9]): 89% | TGI (OVCAR-3; 48 hour exposure): 6.80E−06 Molar | Percent Growth (OVCAR-3; [5]): −82% | Percent Growth (OVCAR-3; [6]): 13% | Percent Growth (OVCAR-3; [7]): 4% | Percent Growth (OVCAR-3; [8]): 87% | Percent Growth (OVCAR-3; [9]): 97% | Percent Growth (A549/ATCC; [5]): 5% | Percent Growth (A549/ATCC; [6]): 12% | Percent Growth (A549/ATCC; [7]): −6% | Percent Growth (A549/ATCC; [8]): 93% | Percent Growth (A549/ATCC; [9]): 108% | TGI (COLO 205; 48 hour exposure): >5.00E−05 Molar | Percent Growth (COLO 205; [5]): 20% | Percent Growth (COLO 205; [6]): 23% | Percent Growth (COLO 205; [7]): 31% | Percent Growth (COLO 205; [8]): 88% | Percent Growth (COLO 205; [9]): 95% | TGI (NCI-H460; 48 hour exposure): 5.64E−06 Molar | Percent Growth (NCI-H460; [5]): −69% | Percent Growth (NCI-H460; [6]): 4% | Percent Growth (NCI-H460; [7]): 8% | Percent Growth (NCI-H460; [8]): 73% | Percent Growth (NCI-H460; [9]): 84% | Percent Growth (SK-MEL-5; [5]): −19% | Percent Growth (SK-MEL-5; [6]): 9% | Percent Growth (SK-MEL-5; [7]): −2% | Percent Growth (SK-MEL-5; [8]): 42% | Percent Growth (SK-MEL-5; [9]): 86% | TGI (UACC-257; 48 hour exposure): 2.25E−05 Molar | Percent Growth (UACC-257; [5]): −10% | Percent Growth (UACC-257; [6]): 19% | Percent Growth (UACC-257; [7]): 6% | Percent Growth (UACC-257; [8]): 99% | Percent Growth (UACC-257; [9]): 101% | TGI (A498; 48 hour exposure): 5.15E−06 Molar | Percent Growth (A498; [5]): −82% | Percent Growth (A498; [6]): 1% | Percent Growth (A498; [7]): 5% | Percent Growth (A498; [8]): 98% | Percent Growth (A498; [9]): 95% | TGI (HL-60(TB); 48 hour exposure): >5.00E−05 Molar | Percent Growth (HL-60(TB); [5]): 3% | Percent Growth (HL-60(TB); [6]): 9% | Percent Growth (HL-60(TB); [7]): 10% | Percent Growth (HL-60(TB); [8]): 54% | Percent Growth (HL-60(TB); [9]): 85% | TGI (M14; M14, 48 hour exposure): 1.68E−07 Molar | Percent Growth (M14; M14, Log10 Concentration −4.3, 48 hour exposure): −92% | Percent Growth (M14; M14, Log10 Concentration −5.3, 48 hour exposure): −90% | Percent Growth (M14; M14, Log10 Concentration −6.3, 48 hour exposure): −69% | Percent Growth (M14; M14, Log10 Concentration −7.3, 48 hour exposure): 77% | Percent Growth (M14; M14, Log10 Concentration −8.3, 48 hour exposure): 105%

O=C(Nc1cc(O)ccc1CCCl)c1cc2cc(NC(=O)c3cc4ccccc4o3)ccc2[nH]1 [Compound 1, 4-(2-Chloroethyl)-3-[5-(5-benzofuran-2-carboxamido)indole-2-carboxamido]phenol]
GI50 (NCI-H226): 4.09 µM | TGI (NCI-H226): 1.62E−05 Molar | Percent Growth (NCI-H226; Log10 Concentration −4.0): −90% | Percent Growth (NCI-H226; Log10 Concentration −8.0): 100% | GI50 (SF-539 [1]): 1.92 µM | TGI (SF-539 [1]): 4.16E−06 Molar | Percent Growth (SF-539 [1]; Log10 Concentration −4.0): −100% | Percent Growth (SF-539 [1]; Log10 Concentration −8.0): 92% | GI50 (OVCAR-3): 2.13 µM | TGI (OVCAR-3): 4.69E−06 Molar | Percent Growth (OVCAR-3; Log10 Concentration −4.0): −99% | Percent Growth (OVCAR-3; Log10 Concentration −7.0): 102% | Percent Growth (OVCAR-3; Log10 Concentration −8.0): 94% | GI50 (A549/ATCC): 1.98 µM | TGI (A549/ATCC): 6.58E−06 Molar | Percent Growth (A549/ATCC; Log10 Concentration −4.0): −100% | Percent Growth (A549/ATCC; Log10 Concentration −6.0): 78% | Percent Growth (A549/ATCC; Log10 Concentration −8.0): 96% | CC50 (MOLT-4): > 100 µM | CC50 (RXF 393): 4.77 µM | CC50 (SK-MEL-28): 21.4 µM | IC50 (L1210 leukemia cells): 23 µM | CC50 (BT-549): > 100 µM | CC50 (SF-539 [2]): 9 µM | IC50 ([3]; continuous exposure, read-out: IC50 MCF-7 Continuous exposure): 3.43 µM | IC50 ([3]; read-out: IC50 MCF-7 1 hour exposure, 1 hour exposure): > 50 µM | GI50 (SK-MEL-5): 1.73 µM | TGI (SK-MEL-5): 3.34E−06 Molar | Percent Growth (SK-MEL-5; Log10 Concentration −4.0): −97% | Percent Growth (SK-MEL-5; Log10 Concentration −6.0): 92% | Percent Growth (SK-MEL-5; Log10 Concentration −7.0): 104% | GI50 (UACC-257): 1.88 µM | TGI (UACC-257): 3.40E−06 Molar | Percent Growth (UACC-257; Log10 Concentration −4.0): −97% | Percent Growth (UACC-257; Log10 Concentration −7.0): 104% | Percent Growth (UACC-257; Log10 Concentration −8.0): 102% | IC50 ([4]; continuous exposure, read-out: IC50 LS174T Continuous exposure): 2.27 µM | IC50 ([4]; read-out: IC50 LS174T 1 hour exposure, 1 hour exposure): 18 µM | GI50 (MALME-3M): 1.84 µM | TGI (MALME-3M): 3.56E−06 Molar | Percent Growth (MALME-3M; Log10 Concentration −4.0): −95% | Percent Growth (MALME-3M; Log10 Concentration −7.0): 102% | Percent Growth (MALME-3M; Log10 Concentration −8.0): 102% | CC50 (OVCAR-5): 20 µM | Percent Growth (OVCAR-5): −29% | GI50 (OVCAR-5; OVCAR-5): 2.28 µM | TGI (OVCAR-5; OVCAR-5): 5.80E−06 Molar | Percent Growth (OVCAR-5; OVCAR-5, Log10 Concentration −4.0): −99% | Percent Growth (OVCAR-5; OVCAR-5, Log10 Concentration −6.0): 94% | Percent Growth (OVCAR-5; OVCAR-5, Log10 Concentration −7.0): 95% | Percent Growth (OVCAR-5; OVCAR-5, Log10 Concentration −8.0): 94% | Percent Growth (M14): −75% | GI50 (M14; M14): 1.49 µM | TGI (M14; M14): 3.19E−06 Molar | Percent Growth (M14; M14, Log10 Concentration −4.0): −99% | Percent Growth (M14; M14, Log10 Concentration −6.0): 76% | Percent Growth (M14; M14, Log10 Concentration −7.0): 91% | Percent Growth (M14; M14, Log10 Concentration −8.0): 93%
